Measurements reported in patent publication US9101628B2, “Methods and composition of treating a flaviviridae family viral infection” (The Board of Trustees of the Leland Stanford Junior …, priority 2007, dated 2015).
Entries after “also recorded” stand apart in the source; their conditions may differ. Counter-ions that a name gives are not always drawn. Like-named read-outs stand apart in the source and are kept apart here.

Columns and labels:
[1] = biological target: T1, HuR (Homo sapiens, UniProt Q15717); experiment: HuR RNA binding by microfluidics (specificity of hits); details: 0.1 mM
T1 construct: The open reading frames (ORF) of HuR and HuD were obtained from the ORFeome library of cDNA clones (Open biosystems); V5-his (C); made in house; host or cells: cell-free expression on the microfluidic device, from pcDNA-Dest 40 carrying the ORFeome clone (Open Biosystems)
T1 sequence (Q15717 whole entry): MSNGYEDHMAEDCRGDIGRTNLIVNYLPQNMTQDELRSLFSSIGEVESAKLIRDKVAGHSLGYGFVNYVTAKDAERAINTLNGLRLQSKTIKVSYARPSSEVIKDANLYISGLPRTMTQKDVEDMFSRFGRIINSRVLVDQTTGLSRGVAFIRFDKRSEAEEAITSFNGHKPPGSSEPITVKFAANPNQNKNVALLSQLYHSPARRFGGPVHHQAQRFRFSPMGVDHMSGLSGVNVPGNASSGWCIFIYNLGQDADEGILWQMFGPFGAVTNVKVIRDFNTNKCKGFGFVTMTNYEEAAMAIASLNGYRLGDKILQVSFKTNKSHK
Protocol: Specificity of hits identified in the small molecule screen: To determine the specificity of the hits identified in the small molecule screen, the HuR protein (one of the human RNA binding protein used to validate our RNA binding assay) was selected. […] Binding of HuR to the consensus 4A RNA sequence was tested in the presence of the inhibitory molecules shown to inhibit RNA binding by NS4B. […] Similarly, 0.1 mM of the identified compounds didn't have an inhibitory effect on binding of HuR to the 3′ terminus of the negative HCV RNA strand.

[2] = test system: Huh7.5 cells; experiment: Alamar Blue-based cell viability assay; parameters: species or system human
Protocol: (§1) Total volume per well is 100 μl.
(§2) (or until there is a color change).

[3] = test system: full-length J6/JFH (genotype 2a) HCV RNA genome; experiment: microbe, parasite or virus in culture; format: cell-based; details: for EC50: Hepatitis C virus, Huh7.5, 72 h, read-out: EC50 HCV replication, genotype 2a luciferase reporter, Huh7.5 cells, 72 hr
Protocol: In such assays, luciferase activity is directly proportional to HCV RNA genome replication.
The in vivo antiviral effect on HCV RNA replication of the inhibitory compounds identified in the above screen was measured. Following electroporation with a full-length HCV RNA genome harboring a luciferase reporter gene, Huh7.5 cells were grown in the presence of increasing concentrations of these compounds. Luciferase assays were performed at 72 hr. In parallel, the viability of cells in the presence of the compounds was assessed by an Alamar Blue-based assay.
Huh-7.5 cells were maintained in Dulbecco's modified minimal essential medium (Gibco) supplemented with 1% L-glutamine (Gibco), 1% penicillin, 1% streptomycin (Gibco), 1× nonessential amino acids (Gibco) and 10% fetal bovine serum (Omega Scientific). Cell lines were passaged twice weekly after treatment with 0.05% trypsin-0.02% EDTA and seeding at a dilution of 1:5. Subconfluent Huh-7.5 cells were trypsinized and collected by centrifugation at 700 g for 5 min. The cells were then washed three times in ice-cold RNase-free PBS (BioWhittaker) and resuspended at 1.5*10^7 cells/ml in PBS. Wild type or mutant FL-J6/JFH-5′C19Rluc2AUbi RNA for electroporation was generated by in vitro transcription of XbaI-linearized DNA templates using the T7 MEGAscript kit (Ambion), followed by purification, essentially as described above (In vitro RNA transcription and fluorescent labeling). 5 μg of RNA was mixed with 400 μl of washed Huh-7.5 cells in a 2 mm-gap cuvette (BTX) and immediately pulsed (0.82 kV, five 99 μs pulses) with a BTX-830 electroporator. After a 10 min recovery at 25° C., pulsed cells were diluted into 10 ml of prewarmed growth medium. Cells from several electroporations were pooled to a common a stock and seeded in 6 well plates (5*10^5 cells per well). After 24 hr, medium was replaced and cells were grown in the presence of serial dilutions of the various inhibitory compounds (Sigma) identified in the screen. […] Untreated cells were used as a negative control for water soluble compounds. For compounds solubilized in DMSO, untreated cells were grown in the presence of corresponding concentrations of the solvent as a negative control. Medium was changed daily. After 72 hr of treatment, cells were subjected to an alamar blue based viability assay and luciferase assay.
The experiment was repeated four times, each time with triplicates.
Following electroporation with a full-length J6/JFH (genotype 2a) HCV RNA genome harboring a luciferase reporter gene, Huh7.5 cells were grown in the presence of various concentrations of the individual compounds and their combinations. Luciferase assays were performed at 72 hr.

[4] = test system: HCV RNA replication; experiment: RNA replication inhibition assay (luciferase reporter-linked HCV genome); details: Hepatitis C virus, percentage of untreated control population; for activity at 5 µM: read-out: Residual Luciferase activity, 5 micromolar; for activity at 10 µM: read-out: Residual Luciferase activity, 10 micromolar
[5] = biological target: hERG channel (Homo sapiens, UniProt Q12809); experiment: HERG channel assay (whole cell recordings, CHO cell line expressing hERG)
Chain of hERG channel (Q12809 whole entry): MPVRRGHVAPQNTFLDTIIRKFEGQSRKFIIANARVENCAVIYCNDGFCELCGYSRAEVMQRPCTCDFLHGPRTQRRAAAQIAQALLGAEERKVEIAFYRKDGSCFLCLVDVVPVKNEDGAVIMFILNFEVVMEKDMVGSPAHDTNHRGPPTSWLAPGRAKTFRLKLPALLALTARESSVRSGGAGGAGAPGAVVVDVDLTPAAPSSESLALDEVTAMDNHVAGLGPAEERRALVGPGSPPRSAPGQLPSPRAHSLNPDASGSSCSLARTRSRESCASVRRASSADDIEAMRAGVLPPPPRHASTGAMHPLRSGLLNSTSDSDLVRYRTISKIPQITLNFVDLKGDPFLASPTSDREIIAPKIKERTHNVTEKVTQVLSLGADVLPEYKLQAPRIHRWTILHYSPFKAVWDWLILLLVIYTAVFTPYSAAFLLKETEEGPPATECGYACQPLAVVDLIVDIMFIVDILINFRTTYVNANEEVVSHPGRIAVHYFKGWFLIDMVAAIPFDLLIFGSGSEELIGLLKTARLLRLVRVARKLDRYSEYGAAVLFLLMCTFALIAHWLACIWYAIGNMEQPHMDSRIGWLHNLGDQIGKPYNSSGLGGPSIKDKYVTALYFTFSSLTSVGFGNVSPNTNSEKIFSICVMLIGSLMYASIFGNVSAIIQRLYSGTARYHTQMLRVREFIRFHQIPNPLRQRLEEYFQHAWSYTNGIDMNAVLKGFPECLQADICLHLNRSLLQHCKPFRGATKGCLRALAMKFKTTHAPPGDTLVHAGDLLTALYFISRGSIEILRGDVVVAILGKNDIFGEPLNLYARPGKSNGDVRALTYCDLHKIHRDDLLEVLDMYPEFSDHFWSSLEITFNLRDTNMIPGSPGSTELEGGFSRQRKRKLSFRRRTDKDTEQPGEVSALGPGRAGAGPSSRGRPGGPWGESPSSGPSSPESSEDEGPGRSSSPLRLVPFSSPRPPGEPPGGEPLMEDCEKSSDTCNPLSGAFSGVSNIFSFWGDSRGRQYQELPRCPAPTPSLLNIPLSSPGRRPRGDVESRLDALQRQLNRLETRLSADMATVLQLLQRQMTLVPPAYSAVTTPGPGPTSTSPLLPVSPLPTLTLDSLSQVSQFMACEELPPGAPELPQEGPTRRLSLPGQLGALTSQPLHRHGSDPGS
Protocol: Test articles in this study were therefore characterized to determine their ability to inhibit the hERG channel. Ion channel activity was measured using a stably transfected Chinese Hamster Ovary (CHO) cell line expressing the hERG mRNA.
AVIVA's CHO cell line, which stably expresses hERG channels, was used for the study. Cells were cultured in DMEM/F12 containing 10% FBS, 1% penicillin/streptomycin and 500 μg/ml G418. Before testing, cells were harvested using Accumax (Innovative Cell Technologies).
Whole cell recordings were-performed using PX 7000A (Axon Instruments) with VIVA's SealChip™ technology. Cells were voltage clamped at a holding potential of −80 mV. The hERG current was then activated by a depolarizing step to −50 mV for 300 ms. This first step at −50 mV was used as a baseline for measuring peak amplitude of the tail current. Next, a voltage step to +20 mV was applied for 5 s to activate the channels. Finally a step back to −50 mV for 5 seconds removed activation and the deactivating tail current was recorded.
All compounds were prepared from either 10 or 30 mM DMSO stock solutions. Solutions were mixed by sonication for 20 min, followed by vigorous vortexing. Prior to testing, compounds were diluted to test concentrations in glass vials using External Solution. Dilutions were prepared no longer than 20 min prior to use. Equal amounts of DMSO (0.1%) were present in all final dilutions.
After achieving whole cell configuration, cells were monitored for 90 s to assess stability and then washed with External Solution for 66 s. The voltage protocol described above was then applied to the cells every 12 s throughout the procedure. Only stable cells with recording parameters above threshold (see Quality Control section) were allowed to enter the drug addition procedure. External solution containing 0.1% DMSO (vehicle) was applied to the cells to establish a baseline. After allowing the current to stabilize for 3 to 5 min, test articles were applied. Test article solutions were added to cells in 4 separate additions. […]

[6] = test system: HCV; details: cited from earlier work
[7] = test system: subgenomic Bart 79I HCV RNA replicon (genotype 1b); experiment: microbe, parasite or virus in culture; format: cell-based; details: Hepatitis C virus; genotype 1b luciferase reporter, 72 hr; read-out: EC50 HCV replication
Protocol: Huh7.5 cells were electroporated with a subgenomic Bart 79I HCV RNA replicon harboring a luciferase reporter gene, and grown in the presence of increasing concentrations of the individual compounds or their combinations. As described above, luciferase assays and Alamar Blue-based viability assays were performed at 72 hr.

[8] = test system: replicon harboring the W55R mutation; experiment: Whole cell RNA electroporation, clemizole resistant clone; format: cell-based, HCV; details: 10 μM clemizole; 2.5 μM SCH503034
Protocol: Whole cell RNA was extracted from clemizole-resistant replicon clones and from untreated replicon cells using TRIzol reagent (Invitrogen). Equal amounts of whole cell RNA (50 μg) were electroporated into Huh7.5 cells as described above. Cells were grown under G418 selection in the presence or absence of clemizole for 3 weeks. The number of colonies was determined using Image J (NIH) following fixation and staining with Crystal violet.
Cells transfected with whole cell RNA extracted from wild type replicon cells were sensitive to both drugs.

[9] = Alamar Blue-based cell viability assay; parameters: species or system human; details: human, Huh7.5 cells; genotype 2a experiments; Alamar Blue-based and CellTiter-Blue assay
Protocol: as §1, §2

[10] = test system: replicon harboring the A156T mutation; experiment: Whole cell RNA electroporation, SCH503034 resistant clone; format: cell-based, HCV

O=C(O)C1=CC(=C(c2ccc(O)c(C(=O)O)c2)c2ccc(O)c(C(=O)O)c2)C=CC1=O [ATA]
effect on binding of HuR to 4A RNA sequence [1]: affected; also recorded: significantly inhibited
effect on binding of HuR to the 3′ terminus of the negative HCV RNA strand [1]: significantly inhibited

Clc1ccc(Cn2c(CN3CCCC3)nc3ccccc32)cc1 [Clemizole hydrochloride, clemizole hydrochloride]
cellular toxicity ([2]; at antiviral concentrations, Alamar Blue, 72 hr, hydrochloride): no measurable cellular toxicity
cellular toxicity ([2]; human, 72 h): little toxicity
decrease in viral replication ([3]; 20 μM, 72 hr): tenfold

Oc1ccc(Cn2cnc3ccccc32)cc1 [Compound 143]
activity at 5 µM [4]: > 80%
activity at 10 µM [4]: < 80%

COc1ccc(Cn2cnc3ccccc32)cc1 [Compound 144]
activity at 5 µM [4]: < 55%
activity at 10 µM [4]: < 55%

Cc1cc2nc(/C=C/c3ccccc3)n(Cc3ccc(Cl)cc3)c2cc1C [Compound 145]
activity at 5 µM [4]: < 80%
activity at 10 µM [4]: < 20%

Cc1cc2c(ncn2Cc2ccccc2)c(N)c1C [Compound 146]
activity at 5 µM [4]: < 80%
activity at 10 µM [4]: < 80%

COc1ccc(Cn2c(C)nc3c(N)c(C)c(C)cc32)cc1 [Compound 147]
activity at 5 µM [4]: < 80%
activity at 10 µM [4]: < 80%

CS(=O)(=O)c1ccc2c(c1)ncn2Cc1ccccc1 [Compound 149]
activity at 5 µM [4]: > 80%
activity at 10 µM [4]: > 80%

CS(=O)(=O)c1ccc2c(c1)nc(C(F)(F)F)n2Cc1ccccc1 [Compound 150]
activity at 5 µM [4]: < 80%
activity at 10 µM [4]: < 55%

CCOC(=O)Cc1nc2cc(S(C)(=O)=O)ccc2n1Cc1ccccc1 [Compound 151]
activity at 5 µM [4]: < 80%
activity at 10 µM [4]: < 55%

CS(=O)(=O)c1ccc2c(c1)nc(S)n2Cc1ccccc1 [Compound 152]
activity at 5 µM [4]: < 80%
activity at 10 µM [4]: < 55%

CCOC(=O)CSc1nc2cc(S(C)(=O)=O)ccc2n1Cc1ccccc1 [Compound 153]
activity at 5 µM [4]: > 80%
activity at 10 µM [4]: < 80%

Cc1cc2ncn(Cc3cc(Cl)cc4c3OCCO4)c2cc1C [Compound 154]
activity at 5 µM [4]: < 80%
activity at 10 µM [4]: < 55%

Cc1ccc(Cn2c(C)nc3cc(C)c(C)cc32)cc1 [Compound 155]
activity at 5 µM [4]: < 55%
activity at 10 µM [4]: < 20%

Cc1cc2nc(CN3CCCC3)n(Cc3ccc(Cl)cc3)c2cc1C [Compound 156]
activity at 5 µM [4]: < 80%
activity at 10 µM [4]: < 55%

Clc1ccc(Cn2c(CN3CCCC3)nc3cc(Cl)c(Cl)cc32)cc1 [Compound 157]
activity at 5 µM [4]: < 80%
activity at 10 µM [4]: < 55%

Cc1cc2nc(-c3ccc[nH]c3=O)n(Cc3ccc(Cl)cc3)c2cc1C [Compound 158]
activity at 5 µM [4]: < 80%
activity at 10 µM [4]: < 80%

Cc1cc2nc(-c3ccc(=O)[nH]c3)n(Cc3ccc(Cl)cc3)c2cc1C [Compound 159]
activity at 5 µM [4]: < 80%
activity at 10 µM [4]: < 55%

COC(=O)c1ccc(Cn2c(/C=C/c3ccccc3)nc3cc(C)c(C)cc32)cc1 [Compound 160]
activity at 5 µM [4]: < 80%
activity at 10 µM [4]: < 20%

COC(=O)c1ccc(Cn2cnc3ccncc32)cc1 [Compound 161]
activity at 5 µM [4]: > 80%
activity at 10 µM [4]: > 80%

O=c1ccc(-c2nc3cc(Cl)c(Cl)cc3n2Cc2ccc(Cl)c(Cl)c2)c[nH]1 [Compound 167]
IC50 ([5]; read-out: HERG IC50, CHO cell line stably expressing hERG): > 1000 nM

Cc1ccc2c(c1)nc(CN1CCCCC1)n2Cc1ccc(Cl)cc1 [Compound 184]
IC50 ([5]; human, CHO cells stably expressing hERG): > 1000 nM

CNC(=O)c1c(-c2ccc(F)cc2)oc2cc(N(CCO)S(C)(=O)=O)c(C3CC3)cc12 [HCV 796, HCV-796]
EC50 ([6]; read-out: EC50 reported value): 17 nM
EC50 [3]: 68 ± 8 nM

CC(C)[C@H](N)C(=O)O[C@@H]1[C@@H](CO)O[C@@H](n2ccc(N)nc2=O)[C@]1(C)O [NM283, valopicitabine]
EC50 [3]: 1160 ± 200 nM

CC(C)(C)NC(=O)N[C@H](C(=O)N1C[C@H]2[C@@H]([C@H]1C(=O)NC(CC1CCC1)C(=O)C(N)=O)C2(C)C)C(C)(C)C (some centres unmarked) [SCH503034, boceprevir]
EC50 [7]: ~210 nM
sensitivity of Huh7.5 cells transfected with whole cell RNA from W55R clone [8]: remained sensitive
CC50 at 72 h [9]: > 100000 nM
CC50 ([2]; genotype 1b experiments, Alamar Blue, 72 hr): > 100000 nM
EC50 [3]: 800 nM
decrease of viral replication ([3]; SCH503034 alone at 2.5 μM): ~1 log
viral replication relative to 1, untreated ([3]; SCH503034 alone at 2.5 μM): 0.08
sensitivity of Huh7.5 cells transfected with whole cell RNA from A156T clone [10]: decreased sensitivity

CCC[C@H](NC(=O)[C@@H]1[C@H]2CCC[C@H]2CN1C(=O)[C@@H](NC(=O)[C@@H](NC(=O)c1cnccn1)C1CCCCC1)C(C)(C)C)C(=O)C(=O)NC1CC1 [VX-950, telaprevir]
EC50 ([6]; different assay and 1b genotype, read-out: EC50 reported by others): 354 to 560 nM
EC50 [3]: ~300 nM
